{"source": "paper PMC12396409", "about": "“Screening and hit evaluation of a microbial metabolite library against the pathogenic Plasmodium falciparum and Toxoplasma gondii parasites” (International Journal for Parasitology: Drugs and Drug …, 2025)", "key": {"[1]": {"test_system": "T. gondii RH strain (RH-Tub-eYFP) tachyzoites", "test": "microbe, parasite or virus in culture", "format": "cell-based, Toxoplasma gondii", "details": "72 h; for percent parasite growth at 2 µg/mL: Toxoplasma gondii"}, "[2]": {"test_system": "P. falciparum 3D7 parasites", "test": "P. falciparum growth inhibition assay, 1-cycle (72 h treatment), SYBR DNA staining (library screen at 2 μg/mL and dose-response)", "format": "cell-based, Plasmodium falciparum", "details": "for activity at 2 µg/mL: Plasmodium falciparum, 3D7"}, "[3]": {"test_system": "P. falciparum 3D7 parasites", "test": "P. falciparum growth inhibition assay, 2-cycle (120 h treatment), delayed-death screen and dose-response", "format": "cell-based, Plasmodium falciparum", "details": "for activity at 2 µg/mL: Plasmodium falciparum, 3D7"}, "[4]": {"details": "library screen at 2 μg/mL, % growth, replicate 1"}, "[5]": {"details": "library screen at 2 μg/mL, % growth, replicate 2"}, "[6]": {"details": "library screen at 2 μg/mL, 72 h, % growth, replicate 1"}, "[7]": {"details": "library screen at 2 μg/mL, 72 h, % growth, replicate 2"}, "[8]": {"details": "library screen at 2 μg/mL, 120 h, % growth, replicate 1"}, "[9]": {"details": "library screen at 2 μg/mL, 120 h, % growth, replicate 2"}, "[10]": {"details": "T. gondii RH, library screen at 2 μg/mL, % growth, replicate 1"}, "[11]": {"details": "T. gondii RH, library screen at 2 μg/mL, % growth, replicate 2"}, "[12]": {"details": "P. falciparum 3D7, 72 h, library screen at 2 μg/mL, % growth, replicate 1"}, "[13]": {"details": "P. falciparum 3D7, 72 h, library screen at 2 μg/mL, % growth, replicate 2"}, "[14]": {"details": "P. falciparum 3D7, 120 h, library screen at 2 μg/mL, % growth, replicate 1"}, "[15]": {"details": "P. falciparum 3D7, 120 h, library screen at 2 μg/mL, % growth, replicate 2"}}, "note": "Read-outs that look alike come from different tables or passages of the source."}
{"molecule": "CC[C@H]1OC(=O)[C@H](C)[C@@H](O[C@H]2C[C@@](C)(OC)[C@@H](O)[C@H](C)O2)[C@H](C)[C@@H](O[C@@H]2O[C@H](C)C[C@H](N(C)C)[C@H]2O)[C@](C)(O)C[C@@H](C)C(=NO)[C@H](C)[C@@H](O)[C@]1(C)O", "note": "[Erythromycin A oxime]", "values": [{"measurement": "Tg_72h_%Growth_Rep1", "setting": "[1]; [4]", "result": 42.42, "unit": "%"}, {"measurement": "Tg_72h_%Growth_Rep2", "setting": "[1]; [5]", "result": 49.55, "unit": "%"}, {"measurement": "Pf_72h_%Growth_Rep1", "setting": "[2]; [6]", "result": 85.19, "unit": "%"}, {"measurement": "Pf_72h_%Growth_Rep2", "setting": "[2]; [7]", "result": 75.74, "unit": "%"}, {"measurement": "Pf_120h_%Growth_Rep1", "setting": "[3]; [8]", "result": 78.37, "unit": "%"}, {"measurement": "Pf_120h_%Growth_Rep2", "setting": "[3]; [9]", "result": 65.13, "unit": "%"}]}
{"molecule": "C[C@@H]1C[C@H]2O[C@@H]2/C=C\\C=C\\C(=O)Cc2c(Cl)c(O)cc(O)c2C(=O)O1", "note": "[Radicicol]", "values": [{"measurement": "percent parasite growth at 2 µg/mL", "setting": "[1]; T. gondii, parasite screen 2 μg/mL, % growth, replicate 1, read-out: Tg_72h_%Growth_Rep1", "result": 52.9, "unit": "%"}, {"measurement": "percent parasite growth at 2 µg/mL", "setting": "[1]; T. gondii, parasite screen 2 μg/mL, % growth, replicate 2, read-out: Tg_72h_%Growth_Rep2", "result": 57.6, "unit": "%"}, {"measurement": "activity at 2 µg/mL", "setting": "[2]; P. falciparum, 72 h, parasite screen 2 μg/mL, % growth, replicate 1, read-out: Pf_72h_%Growth_Rep1", "result": 57.5, "unit": "%"}, {"measurement": "activity at 2 µg/mL", "setting": "[2]; P. falciparum, 72 h, parasite screen 2 μg/mL, % growth, replicate 2, read-out: Pf_72h_%Growth_Rep2", "result": 42.5, "unit": "%"}, {"measurement": "activity at 2 µg/mL", "setting": "[3]; P. falciparum, 120 h, parasite screen 2 μg/mL, % growth, replicate 1, read-out: Pf_120h_%Growth_Rep1", "result": 64.2, "unit": "%"}, {"measurement": "activity at 2 µg/mL", "setting": "[3]; P. falciparum, 120 h, parasite screen 2 μg/mL, % growth, replicate 2, read-out: Pf_120h_%Growth_Rep2", "result": 55, "unit": "%"}]}
{"molecule": "COc1ccc2c(c1OC)C(=O)OC2C1c2cc3c(cc2CCN1C)OCO3", "note": "(stereo not drawn) [BIA-H1954]", "values": [{"measurement": "Tg_72h_%Growth_Rep1", "setting": "[1]; [10]", "result": 92.88, "unit": "%"}, {"measurement": "Tg_72h_%Growth_Rep2", "setting": "[1]; [11]", "result": 95.07, "unit": "%"}, {"measurement": "Pf_72h_%Growth_Rep1", "setting": "[2]; [12]", "result": 81.78, "unit": "%"}, {"measurement": "Pf_72h_%Growth_Rep2", "setting": "[2]; [13]", "result": 87.48, "unit": "%"}, {"measurement": "Pf_120h_%Growth_Rep1", "setting": "[3]; [14]", "result": 145.49, "unit": "%"}, {"measurement": "Pf_120h_%Growth_Rep2", "setting": "[3]; [15]", "result": 80.33, "unit": "%"}]}
{"molecule": "CC[C@H](C)[C@@H](OC(C)=O)[C@@H](C)C1=CC(=O)C2=C(O[C@]3(C)CC[C@H]4O[C@@H](C(C)(C)O)CC[C@]4(C)[C@H]3[C@@H]2O)C1=O", "note": "[Cochlioquinone A]", "values": [{"measurement": "percent parasite growth at 2 µg/mL", "setting": "[1]; T. gondii, screen at 2 μg/mL, replicate 1, read-out: Tg_72h_%Growth_Rep1", "result": 161, "unit": "%"}, {"measurement": "percent parasite growth at 2 µg/mL", "setting": "[1]; T. gondii, screen at 2 μg/mL, replicate 2, read-out: Tg_72h_%Growth_Rep2", "result": 90.2, "unit": "%"}, {"measurement": "activity at 2 µg/mL", "setting": "[2]; P. falciparum, 72 h, screen at 2 μg/mL, replicate 1, read-out: Pf_72h_%Growth_Rep1", "result": 79.2, "unit": "%"}, {"measurement": "activity at 2 µg/mL", "setting": "[2]; P. falciparum, 72 h, screen at 2 μg/mL, replicate 2, read-out: Pf_72h_%Growth_Rep2", "result": 80.1, "unit": "%"}, {"measurement": "activity at 2 µg/mL", "setting": "[3]; P. falciparum, 120 h, screen at 2 μg/mL, replicate 1, read-out: Pf_120h_%Growth_Rep1", "result": 75.8, "unit": "%"}, {"measurement": "activity at 2 µg/mL", "setting": "[3]; P. falciparum, 120 h, screen at 2 μg/mL, replicate 2, read-out: Pf_120h_%Growth_Rep2", "result": 74.1, "unit": "%"}]}
{"molecule": "Cc1cc(O)c2c(c1)C(=O)C13C(=C2O)C(=O)C2C(O)C1C1C(O)C3C(=O)C3=C(O)c4c(O)cc(C)cc4C(=O)C321", "note": "(stereo not drawn) [Rugulosin + form]", "values": [{"measurement": "Tg_72h_%Growth_Rep1", "setting": "[1]; T. gondii, parasite screen 2 μg/mL, % growth, replicate 1", "result": 114.00, "unit": "%"}, {"measurement": "Tg_72h_%Growth_Rep2", "setting": "[1]; T. gondii, parasite screen 2 μg/mL, % growth, replicate 2", "result": 82.13, "unit": "%"}, {"measurement": "Pf_72h_%Growth_Rep1", "setting": "[2]; P. falciparum, 72 h, parasite screen 2 μg/mL, % growth, replicate 1", "result": 87.73, "unit": "%"}, {"measurement": "Pf_72h_%Growth_Rep2", "setting": "[2]; P. falciparum, 72 h, parasite screen 2 μg/mL, % growth, replicate 2", "result": 120.80, "unit": "%"}, {"measurement": "Pf_120h_%Growth_Rep1", "setting": "[3]; P. falciparum, 120 h, parasite screen 2 μg/mL, % growth, replicate 1", "result": 82.55, "unit": "%"}, {"measurement": "Pf_120h_%Growth_Rep2", "setting": "[3]; P. falciparum, 120 h, parasite screen 2 μg/mL, % growth, replicate 2", "result": 131.94, "unit": "%"}]}
{"molecule": "CC[C@H](C)[C@H]1O[C@]2(C=C[C@@H]1C)C[C@@H]1C[C@@H](C/C=C(\\C)[C@@H](O[C@H]3C[C@H](OC)[C@@H](O[C@H]4C[C@H](OC)[C@@H](O)[C@H](C)O4)[C@H](C)O3)[C@@H](C)/C=C/C=C3\\CO[C@@H]4[C@H](O)C(C)=C[C@@H](C(=O)O1)[C@]34O)O2", "note": "[Avermectin B1a]", "values": [{"measurement": "percent parasite growth at 2 µg/mL", "setting": "[1]; library screen at 2 μg/mL, % growth, replicate 1, read-out: Tg_72h_%Growth_Rep1", "result": 81.9, "unit": "%"}, {"measurement": "percent parasite growth at 2 µg/mL", "setting": "[1]; library screen at 2 μg/mL, % growth, replicate 2, read-out: Tg_72h_%Growth_Rep2", "result": 76.2, "unit": "%"}, {"measurement": "activity at 2 µg/mL", "setting": "[2]; library screen at 2 μg/mL, 72 h, % growth, replicate 1, read-out: Pf_72h_%Growth_Rep1", "result": 3.24, "unit": "%"}, {"measurement": "activity at 2 µg/mL", "setting": "[2]; library screen at 2 μg/mL, 72 h, % growth, replicate 2, read-out: Pf_72h_%Growth_Rep2", "result": 3.85, "unit": "%"}, {"measurement": "activity at 2 µg/mL", "setting": "[3]; library screen at 2 μg/mL, 120 h, % growth, replicate 1, read-out: Pf_120h_%Growth_Rep1", "result": 3.33, "unit": "%"}, {"measurement": "activity at 2 µg/mL", "setting": "[3]; library screen at 2 μg/mL, 120 h, % growth, replicate 2, read-out: Pf_120h_%Growth_Rep2", "result": 5.47, "unit": "%"}]}
{"molecule": "Enniatin A1", "values": [{"measurement": "Tg_72h_%Growth_Rep1", "setting": "[1]; [4]", "result": -0.69, "unit": "%"}, {"measurement": "Tg_72h_%Growth_Rep2", "setting": "[1]; [5]", "result": 13.13, "unit": "%"}, {"measurement": "Pf_72h_%Growth_Rep1", "setting": "[2]; [6]", "result": 5.31, "unit": "%"}, {"measurement": "Pf_72h_%Growth_Rep2", "setting": "[2]; [7]", "result": 1.97, "unit": "%"}, {"measurement": "Pf_120h_%Growth_Rep1", "setting": "[3]; [8]", "result": 8.66, "unit": "%"}, {"measurement": "Pf_120h_%Growth_Rep2", "setting": "[3]; [9]", "result": 18.71, "unit": "%"}]}
{"molecule": "CCCCC(C)C=C(C)C=C(C)C(=O)NC1=CC(O)(C=CC=CC=CC(=O)NC2=C(O)CCC2=O)C2OC2C1=O", "note": "(stereo not drawn) [BIA-M1905]", "values": [{"measurement": "Tg_72h_%Growth_Rep1", "setting": "[1]; [10]", "result": 110.20, "unit": "%"}, {"measurement": "Tg_72h_%Growth_Rep2", "setting": "[1]; [11]", "result": 85.96, "unit": "%"}, {"measurement": "Pf_72h_%Growth_Rep1", "setting": "[2]; [12]", "result": 81.84, "unit": "%"}, {"measurement": "Pf_72h_%Growth_Rep2", "setting": "[2]; [13]", "result": 57.54, "unit": "%"}, {"measurement": "Pf_120h_%Growth_Rep1", "setting": "[3]; [14]", "result": 83.56, "unit": "%"}, {"measurement": "Pf_120h_%Growth_Rep2", "setting": "[3]; [15]", "result": 90.34, "unit": "%"}]}
{"molecule": "COc1ccc2cc1Oc1cc(ccc1O)[C@H](O)[C@]13SS[C@@]4(C(=O)N1C)[C@H](O)C1=COC=C[C@H](OC2=O)[C@H]1N4C3=O", "note": "[Emestrin]", "values": [{"measurement": "Tg_72h_%Growth_Rep1", "setting": "[1]; [4]", "result": 2.77, "unit": "%"}, {"measurement": "Tg_72h_%Growth_Rep2", "setting": "[1]; [5]", "result": 0.86, "unit": "%"}, {"measurement": "Pf_72h_%Growth_Rep1", "setting": "[2]; [6]", "result": 36.85, "unit": "%"}, {"measurement": "Pf_72h_%Growth_Rep2", "setting": "[2]; [7]", "result": 26.37, "unit": "%"}, {"measurement": "Pf_120h_%Growth_Rep1", "setting": "[3]; [8]", "result": 35.44, "unit": "%"}, {"measurement": "Pf_120h_%Growth_Rep2", "setting": "[3]; [9]", "result": 47.36, "unit": "%"}]}
